Source: paper PMC12472888 (Molecules, 2025)

How the values were obtained:
Type in all cases: biochemical
ovine COX-1 = molecular target: T1, ovine COX-1 (Ovis aries, UniProt P05979); assay: Cayman COX inhibitor screening kit, prostanoid enzyme immunoassay
T1 construct: gene PTGS1; homodimer
T1 sequence (P05979 25-600): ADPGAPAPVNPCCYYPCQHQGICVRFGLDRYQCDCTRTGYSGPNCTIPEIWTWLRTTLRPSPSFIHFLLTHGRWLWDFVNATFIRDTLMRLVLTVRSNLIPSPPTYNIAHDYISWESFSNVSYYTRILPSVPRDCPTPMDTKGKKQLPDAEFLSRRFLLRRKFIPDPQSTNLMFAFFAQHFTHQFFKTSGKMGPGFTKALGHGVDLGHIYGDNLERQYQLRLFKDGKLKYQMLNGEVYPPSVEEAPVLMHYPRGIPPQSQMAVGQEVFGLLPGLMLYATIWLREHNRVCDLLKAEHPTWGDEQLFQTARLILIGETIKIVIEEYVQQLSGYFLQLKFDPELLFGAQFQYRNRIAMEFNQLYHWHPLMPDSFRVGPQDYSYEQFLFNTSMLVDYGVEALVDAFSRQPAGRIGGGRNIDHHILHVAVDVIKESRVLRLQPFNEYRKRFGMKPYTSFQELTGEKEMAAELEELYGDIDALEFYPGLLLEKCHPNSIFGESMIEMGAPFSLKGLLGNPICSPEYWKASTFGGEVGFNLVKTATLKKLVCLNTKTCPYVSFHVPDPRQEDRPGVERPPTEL
Excerpt: Cayman COX inhibitor screening kit, prostanoid enzyme immunoassay on ovine COX-1

[1] = molecular target: T2, lipoxygenase type I-B from soybean (Glycine max, UniProt P08170); assay: UV absorbance at […] nm, linoleate oxidation
T2 construct: gene LOX1.1; commercial native soybean enzyme (Sigma type I-B), full length
T2 sequence (P08170 1-839): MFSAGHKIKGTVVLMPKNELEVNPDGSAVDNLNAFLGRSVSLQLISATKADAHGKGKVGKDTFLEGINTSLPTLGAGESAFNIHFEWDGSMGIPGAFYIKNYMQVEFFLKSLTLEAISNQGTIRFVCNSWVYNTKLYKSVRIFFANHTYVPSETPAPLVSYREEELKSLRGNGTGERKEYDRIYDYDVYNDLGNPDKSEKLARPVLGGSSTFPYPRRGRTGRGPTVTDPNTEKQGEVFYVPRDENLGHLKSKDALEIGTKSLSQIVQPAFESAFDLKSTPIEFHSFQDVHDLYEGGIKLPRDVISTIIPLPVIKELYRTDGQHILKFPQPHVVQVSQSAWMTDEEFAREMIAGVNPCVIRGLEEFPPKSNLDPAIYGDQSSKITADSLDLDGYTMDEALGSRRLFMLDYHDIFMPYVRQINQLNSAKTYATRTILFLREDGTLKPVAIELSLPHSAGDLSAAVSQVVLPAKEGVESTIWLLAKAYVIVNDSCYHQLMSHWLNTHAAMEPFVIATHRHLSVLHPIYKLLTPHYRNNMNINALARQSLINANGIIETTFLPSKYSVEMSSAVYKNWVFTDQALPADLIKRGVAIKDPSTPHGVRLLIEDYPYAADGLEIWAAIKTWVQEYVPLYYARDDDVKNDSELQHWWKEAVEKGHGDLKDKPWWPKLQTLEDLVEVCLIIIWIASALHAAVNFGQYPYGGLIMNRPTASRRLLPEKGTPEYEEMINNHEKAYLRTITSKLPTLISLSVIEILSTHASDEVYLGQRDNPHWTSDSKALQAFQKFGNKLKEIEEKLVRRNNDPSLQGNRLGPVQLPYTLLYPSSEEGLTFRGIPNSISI

human recombinant COX-2 = molecular target: T3, human recombinant COX-2 (Homo sapiens, UniProt P35354); assay: Cayman COX inhibitor screening kit, prostanoid enzyme immunoassay
T3 construct: gene PTGS2; homodimer; docking used mouse COX-2 (not this entry)
T3 sequence (P35354 18-604): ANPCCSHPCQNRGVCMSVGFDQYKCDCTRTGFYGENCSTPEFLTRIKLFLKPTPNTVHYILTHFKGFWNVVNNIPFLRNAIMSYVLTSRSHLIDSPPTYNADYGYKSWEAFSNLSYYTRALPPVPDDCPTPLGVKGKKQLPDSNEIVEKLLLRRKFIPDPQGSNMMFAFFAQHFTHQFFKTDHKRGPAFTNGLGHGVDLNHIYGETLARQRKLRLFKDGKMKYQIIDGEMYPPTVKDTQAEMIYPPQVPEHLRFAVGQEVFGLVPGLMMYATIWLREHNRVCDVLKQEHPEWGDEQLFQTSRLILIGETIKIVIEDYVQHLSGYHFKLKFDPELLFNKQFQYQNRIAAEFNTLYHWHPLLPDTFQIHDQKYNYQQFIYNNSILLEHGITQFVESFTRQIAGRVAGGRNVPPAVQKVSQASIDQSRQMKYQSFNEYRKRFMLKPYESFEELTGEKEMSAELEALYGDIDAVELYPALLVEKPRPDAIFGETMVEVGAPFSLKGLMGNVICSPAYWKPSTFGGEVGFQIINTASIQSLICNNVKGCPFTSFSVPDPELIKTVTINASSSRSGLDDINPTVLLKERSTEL
Excerpt: Cayman COX inhibitor screening kit, prostanoid enzyme immunoassay on human recombinant COX-2

| Compound | inhibition at 0.05 µM (ovine COX-1) [%] | IC50 [1] [µM] | inhibition at 0.05 µM (human recombinant COX-2) [%] |
| --- | --- | --- | --- |
| CC(C)Cc1ccc(C(C)C(=O)NCCC(=O)OCCO[N+](=O)[O-])cc1 (racemic) [compound 5, 2-(Nitrooxy)ethyl-3-(2-(4-isobutylphenyl)propanamido)propanoate] | 67 | 78 | 95 |
| CC(C)Cc1ccc(C(C)C(=O)N2CCC[C@H]2C(=O)OCCO[N+](=O)[O-])cc1 (stereo partly shown) [compound 6, 2-(Nitrooxy)ethyl-1-(2-(4-isobutylphenyl)propanoyl)pyrrolidine-2-carboxylate] |  | 264 |  |
| COc1ccc2cc([C@H](C)C(=O)N3CCC[C@H]3C(=O)OCCO[N+](=O)[O-])ccc2c1 [compound 8, 2-(Nitrooxy)ethyl-1-(2-(6-methoxynaphthalen-2-yl)propanoyl)pyrrolidine-2-carboxylate] |  | 184 |  |

Now from value to compound:

| inhibition at 0.05 µM (ovine COX-1) [%] | IC50 [1] [µM] | inhibition at 0.05 µM (human recombinant COX-2) [%] | Compound |
| --- | --- | --- | --- |
|  | 51 |  | COc1ccc2cc([C@H](C)C(=O)NCCC(=O)OCCO[N+](=O)[O-])ccc2c1 [compound 7, 2-(Nitrooxy)ethyl-3-(2-(6-methoxynaphthalen-2-yl)propanamido)propanoate] |
| 73 |  |  | COc1ccc2cc([C@H](C)C(=O)NCCC(=O)OCCO)ccc2c1 [compound 9, 2-Hydroxyethyl 3-(2-(6-methoxynaphthalen-2-yl)propanamido)propanoate] |
